Source: the Kinase Knowledgebase extract (Sharma et al. 2016)

Legend:
PIK3CA (human) = PIK3CA (human) (UniProt P42336); assay: Enzyme Assay
PIK3CG (human) = PIK3CG (human) (UniProt P48736); assay: Inhibition of PIK3CG Kinase Activity
PIK3CG (human), sequence (P48736 whole entry, looked up): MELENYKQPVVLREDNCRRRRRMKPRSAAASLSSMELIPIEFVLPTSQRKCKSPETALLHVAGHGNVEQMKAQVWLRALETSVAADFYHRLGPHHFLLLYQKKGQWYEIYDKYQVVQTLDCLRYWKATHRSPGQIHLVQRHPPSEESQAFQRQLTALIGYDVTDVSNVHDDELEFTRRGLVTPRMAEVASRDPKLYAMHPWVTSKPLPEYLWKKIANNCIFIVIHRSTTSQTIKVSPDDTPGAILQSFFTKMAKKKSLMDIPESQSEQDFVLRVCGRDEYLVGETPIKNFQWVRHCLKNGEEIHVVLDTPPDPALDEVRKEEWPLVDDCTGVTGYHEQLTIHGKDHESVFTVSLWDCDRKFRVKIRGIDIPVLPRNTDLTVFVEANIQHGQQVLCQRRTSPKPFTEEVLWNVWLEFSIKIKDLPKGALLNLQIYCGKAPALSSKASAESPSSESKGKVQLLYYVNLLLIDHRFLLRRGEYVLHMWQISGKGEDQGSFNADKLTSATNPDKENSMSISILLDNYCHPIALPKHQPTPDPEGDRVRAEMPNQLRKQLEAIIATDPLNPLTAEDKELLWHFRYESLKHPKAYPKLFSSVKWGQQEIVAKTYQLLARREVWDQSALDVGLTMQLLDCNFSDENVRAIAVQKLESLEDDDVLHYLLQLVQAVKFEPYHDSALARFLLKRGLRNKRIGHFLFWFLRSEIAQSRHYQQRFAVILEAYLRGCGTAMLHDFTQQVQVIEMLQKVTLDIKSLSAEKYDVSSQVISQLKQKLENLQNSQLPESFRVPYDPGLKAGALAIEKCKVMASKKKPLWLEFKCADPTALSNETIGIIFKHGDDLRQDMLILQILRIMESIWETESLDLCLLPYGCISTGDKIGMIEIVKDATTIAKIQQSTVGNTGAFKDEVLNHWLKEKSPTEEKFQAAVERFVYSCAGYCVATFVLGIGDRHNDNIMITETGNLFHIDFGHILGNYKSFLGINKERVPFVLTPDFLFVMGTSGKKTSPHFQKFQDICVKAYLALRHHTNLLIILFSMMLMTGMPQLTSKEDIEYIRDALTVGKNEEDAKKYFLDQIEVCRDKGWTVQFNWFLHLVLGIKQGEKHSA

PIK3CA (human), sequence (P42336 whole entry, looked up): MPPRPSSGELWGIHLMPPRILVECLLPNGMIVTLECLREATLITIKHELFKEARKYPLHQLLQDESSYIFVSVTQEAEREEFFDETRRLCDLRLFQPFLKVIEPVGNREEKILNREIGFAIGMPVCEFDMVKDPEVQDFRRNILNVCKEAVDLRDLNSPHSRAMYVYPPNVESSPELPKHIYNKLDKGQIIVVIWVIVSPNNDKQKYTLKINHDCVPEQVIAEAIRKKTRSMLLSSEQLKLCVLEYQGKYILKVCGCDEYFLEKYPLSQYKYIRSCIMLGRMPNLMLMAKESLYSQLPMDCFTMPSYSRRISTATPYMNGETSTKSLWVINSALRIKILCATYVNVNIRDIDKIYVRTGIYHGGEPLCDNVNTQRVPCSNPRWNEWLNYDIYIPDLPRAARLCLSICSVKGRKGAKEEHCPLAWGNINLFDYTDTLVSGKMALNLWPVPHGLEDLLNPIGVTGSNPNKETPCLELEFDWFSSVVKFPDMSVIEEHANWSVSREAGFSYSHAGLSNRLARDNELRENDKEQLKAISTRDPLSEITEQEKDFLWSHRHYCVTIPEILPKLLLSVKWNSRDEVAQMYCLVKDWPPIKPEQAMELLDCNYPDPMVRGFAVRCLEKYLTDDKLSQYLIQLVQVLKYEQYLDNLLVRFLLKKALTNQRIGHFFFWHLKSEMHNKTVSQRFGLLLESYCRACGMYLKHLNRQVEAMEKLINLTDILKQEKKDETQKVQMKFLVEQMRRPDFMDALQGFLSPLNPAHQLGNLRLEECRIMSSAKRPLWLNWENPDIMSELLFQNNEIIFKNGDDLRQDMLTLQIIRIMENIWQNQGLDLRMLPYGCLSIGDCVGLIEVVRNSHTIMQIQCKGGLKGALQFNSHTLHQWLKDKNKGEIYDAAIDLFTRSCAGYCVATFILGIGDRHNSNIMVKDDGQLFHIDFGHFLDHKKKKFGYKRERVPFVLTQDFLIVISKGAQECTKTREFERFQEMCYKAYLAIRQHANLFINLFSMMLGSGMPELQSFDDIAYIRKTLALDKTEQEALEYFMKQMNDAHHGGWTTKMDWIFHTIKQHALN

Row | Structure (SMILES) | IC50 (PIK3CA (human)) | IC50 (PIK3CG (human))
1 | Cn1cc(/C=C2\Oc3cc(O)cc(O)c3C2=O)c2c(-c3ccc(OC(F)(F)F)cc3)ccnc21 | 183 nM | 139 nM
2 | CN(C)C(=O)CN(C)C(=O)C1CCN(c2ccnc3c2c(C=C2Oc4ccc(NC(=O)Nc5cccnc5)cc4C2=O)cn3C)CC1 | 4230 nM | 6830 nM
3 | Cn1cc(/C=C2\Oc3ccc(NC(=O)Nc4ccc(Cl)nc4)cc3C2=O)c2c(N3CC4CCC(C3)O4)ccnc21 | 747 nM | 2520 nM
4 | Cn1cc(/C=C2\Oc3cc(O)cc(O)c3C2=O)c2c(-c3cncnc3)ccnc21 | 18 nM | 149 nM
5 | Cn1cc(/C=C2\Oc3cccc(O)c3C2=O)c2c(-c3ccc(C(=O)N4CCOCC4)cc3)ccnc21 | 49 nM | 54 nM
6 | Cn1cc(/C=C2\Oc3cccc(O)c3C2=O)c2c(-c3ccc(C4=NCCCO4)cc3)ccnc21 | 109 nM | 276 nM
7 | COc1ccc(-c2ccnc3c2c(/C=C2\Oc4cc(O)cc(O)c4C2=O)cn3C)cc1 | 52 nM | 157 nM
8 | Cn1cc(/C=C2\Oc3cccc(O)c3C2=O)c2c(-c3ccc[nH]3)ccnc21 | 381 nM | 2090 nM
9 | CN(C)S(=O)(=O)c1ccc(-c2ccnc3c2c(/C=C2\Oc4cccc(O)c4C2=O)cn3C)cc1 | 38 nM | 106 nM
10 | Cn1cc(/C=C2\Oc3ccc(NC(=O)NC4CC4)cc3C2=O)c2c(N3CC4CCC(C3)O4)ccnc21 | 289 nM | 2130 nM
